Measurements published in patent US20220160812A1, “A PHARMACEUTICALLY ACTIVE SUBSTANCE” (Cytopharma GmbH, priority 2019, published 2022).

Test system: BxPC-3 human pancreatic cancer cells
Test: cell vitality FACS analysis (region R-1, FSC/SSC), BxPC-3 cells
Assay type: cell-based
Details: BxPC-3, Protocol A, about 24 hours, FIG. 8
Method: To transfer adherent cells (A375 and BxPC-3 cells) after culture, cells are washed twice with PBS. To detach the cells, the enzyme biotase is used according to the manufacturer's instructions. For this purpose, after washing with PBS, the cells are mixed with biotase (5 ml of biotase solution per 75 cm^2 surface of the cell culture bottles) and incubated for 5 min at 37 degrees Celsius, and the biotase is separated by centrifugation. Cells cultivated in suspension (MEC-1 and lymphocytes) were transferred by dilution. The cells are suspended in culture medium and counted, each time 1.5×10^5 cells/cm^2 are seeded in 48-well plates and cultured for between 1.5 and 24 hours at 37 degrees Celsius, 5% CO2. Peptides are pre-diluted from stock solution with culture medium and 200 μl of peptide solution added so that final concentrations of 30 to 500 μM peptide are present in at most 1% (v/v) DMSO. As control solutions, culture medium without peptide (DMSO-containing) in culture medium or etoposide solution is added. After incubating the cells for several hours, the cell supernatant is transferred to a FACS tube for each batch and, after washing the cells with PBS, the wash solution is added. Then the cells are incubated with 200 μl of biotase solution for 10 min, 37° C., the cells with the biotase are also transferred to the FACS tube and the cells are collected by centrifugation for 5 min. The cell pellet is suspended in 500 μl of serum-free culture medium, then 1.5 ml of cold 80% ethanol (ethanol/PBS-80/20, v/v, stored at −20° C.) is added, the FACS tubes sealed and stored at −20 degrees Celsius for 15 to 18 h. Thereafter, the cells are centrifuged for 5 minutes at 120 g, suspended after removal of the supernatant in 2 ml PBS and incubated at 37 degrees Celsius for 30 minutes. After re-centrifugation, the cells are suspended in 0.5 ml DAPI solution and incubated for 15 min at 20 degrees Celsius in the dark. Thereafter, the cells are stored dark for a maximum of four hours in an ice bath, followed by the FACS analysis. […]
For suspension cells (MEC-1 and lymphocytes/PBMC) and for adherent cells analyzed according to Protocol A, FACS analysis to determine subG1 cell cycle and vital cell fractions was done on a Becton Dickinson LSR Fortessa flow cytometer. The analysis by FACS including subG1 and vital cell analysis according to protocol B was performed with a Cytomics FC 500 MPL flow cytometer from Beckman Coulter.
Changes of the cell form during cell death by apoptosis are documented in the literature (Lizard et al. 1995; Taga et al. 2000; Vermes et al., 2000). The protocols for cell cultivation, treatment and preparation of the cells before flow cytometry is detailed in separate examples. Cell suspensions of cell lines A375, BxPC-3, MEC-1 or of primary lymphocytes (see separate example of lymphocyte preparation) are analyzed by flow cytometry. The data are further analyzed by using the program “Flowing Software 2”. The data of light scattering are drawn in a two-dimensional FSC/SSC plot. Since the position in the FSC/SSC plot of apoptotic cells changes relative to non-apoptotic cells (Vermes et al., 2000), a region (R-1) is drawn representing mainly non-apoptotic cells and excluding cells with both low FSC and low SSC values and excluding cells with high values of FSC and/or SSC (FIG. 1). The regions are individually selected for each cell type (A375, BxPC-3, MEC-1 and primary lymphocytes). The percentage of untreated non-apoptotic cells in the region R-1 relative to total cells is set to 100%, representing 100% vital cells. The fraction (%) of cells in R-1 relative to the total number of cells in case of cell treatment by certain peptides or by cytotoxic drugs results in cell vitality, below 100%, thereby indicating a loss of cell vitality by the treatment. […]

[1] = all concentrations (50, 100, 200 μM)

Substance | decrease of cell vitality, efficiency in words (100 μM) | decrease of cell vitality, efficiency in words (200 μM) | decrease of cell vitality, comparison in words [1] | decrease of cell vitality, comparison in words (50 μM) | efficiency (decrease of cell vitality) in view of Peptide SEQ C1 (50 μM) | efficiency (decrease of cell vitality) in view of Peptide SEQ C1 (100 and 200 μM)
k-s-q-t-v-k-k-w-m-v-v-y-f-r-k [SEQID No 29] | very high efficiency | astonishing high efficiency | significantly greater decrease than the control peptide (C1) | – | – | –
k-s-q-t-v-q-k-w-m-v-v-y-f-r-k [SEQID No 36] | very high efficiency | astonishing high efficiency | significantly greater decrease than the control peptide (C1) | clear improvement over peptides SEQID NO 27, SEQID NO 37 and SEQID NO 29 | at least fourfold | at least sevenfold
s-q-t-v-q-k-w-m-v-v-y-f-r-k [SEQID No 37] | – | astonishing high efficiency | significantly greater decrease than the control peptide (C1) | – | – | –
